In US6649646B2, “Insecticidal and miticidal compositions” (priority 1996, dated 2003):

Columns and labels:
[1] = test system: Kanzawa spider mite (Tetranychus kanzawai kishida) which had acquired a strong resistance to chlorfenapyr; test: Miticidal effect against female imagines of chlorfenapyr-resistant Kanzawa spider mite, leaf disk spray test; type: in vivo
Source text: For a T value equal to 100, an additive action is indicated.

[2] = test system: susceptible strain of spider mite; test: LC50 against a susceptible strain of spider mite; type: in vivo
[3] = single test compound, female imago, chlorfenapyr-resistant strain, mortality two days after spray treatment, 25±1° C., probit analysis

Row | SMILES | LC50 [1, 3] [ppm] | other results
1 | COP(=S)(OC)Oc1ccc(C#N)cc1 [CYAP, O,O-Dimethyl-O-p-cyanophenylthiophosphate] | 3200 | –
2 | CCOCn1c(-c2ccc(Cl)cc2)c(C#N)c(Br)c1C(F)(F)F [Chlorfenapyr, 4-Bromo-2-(4-chlorophenyl)-1-(ethoxymethyl)-5-(trifluoromethyl)pyrrole-3-carbonitrile] | 1500 | resistance to chlorfenapyr of the resistant strain versus susceptible strain ([1]; LC50 resistant strain relative to susceptible strain): ~300 fold; LC50 [2]: about 5 ppm
3 | CCOP(=S)(OCC)Oc1nc(Cl)c(Cl)cc1Cl [Chlorpyrifos, O,O-Diethyl-O-3,5,6-trichloro-2-pyridylphosphorothioate] | 3200 | –
4 | COP(=S)(OC)Oc1nc(Cl)c(Cl)cc1Cl [Chlorpyrifosmethyl, O,O-Dimethyl-O-3,5,6-trichloro-2-pyridylphosphorothioate] | 790 | –
5 | CCOP(=S)(OCC)Oc1cc(C)nc(C(C)C)n1 [Diazinon, (2-isopropyl-4-methylpyrimidyl-6)-diethylthiophosphate] | 3200 | –
6 | CCOP(=S)(Oc1ccc([N+](=O)[O-])cc1)c1ccccc1 (stereo not drawn) [EPN, Ethyl p-nitrophenylthionobenzenephosphonate] | 3100 | –
7 | CCOP(=S)(OCC)SCSP(=S)(OCC)OCC [Ethion, O,O,O′,O′-Tetraethyl-S,S′-methylenebisphosphorodithioate] | 3100 | –
8 | CC(C)OP(=O)(OC(C)C)SCc1ccccc1 [IBP, O,O-Diisopropyl-S-benzylthiophosphate] | 1300 | –
9 | COP(=S)(OC)Oc1ccc([N+](=O)[O-])c(C)c1 [MEP, O,O-Dimethyl-O-(3-methyl-4-nitrophenyl)thiophosphate] | 3200 | –
10 | COP(=S)(OC)Oc1ccc(SC)c(C)c1 [MPP, O,O-Dimethyl-O-[3-methyl-4-(methylthio)phenyl]-thiophosphate] | 1100 | –
11 | CCOC(=O)CC(SP(=S)(OC)OC)C(=O)OCC (stereo not drawn) [Malathon, Dimethyldicarbethoxyethyldithiophosphate] | 3400 | –
12 | CCOC(=O)C(SP(=S)(OC)OC)c1ccccc1 (stereo not drawn) [PAP, Ethyl dimethyldithiophosphorylphenylacetate] | 2000 | –
13 | CCOP(=S)(OCC)SCn1c(=O)oc2cc(Cl)ccc21 [Phosalone, 3-Diethoxyphosphorylthiomethyl-6-chlorobenzoxazolone] | 350 | –
14 | CCCSP(=S)(OCC)Oc1ccc(Cl)cc1Cl (stereo not drawn) [Prothiophos, O-2,4-Dichlorophenyl-O-ethyl-S-propylphosphorodithioate] | – | LC50 ([1]; in vivo): 260 ppm
15 | CCOP(=S)(OCC)Oc1ccc(=O)n(-c2ccccc2)n1 [Pyridaphenthion, O,O-Diethyl-O-(3-oxo-2-phenyl-2H-pyridazin-6-yl) phosphorothioate] | 1900 | –
16 | CCCSP(=S)(OCC)Oc1ccc(SC)cc1 (stereo not drawn) [Sulprofos, O-Ethyl-O-4-methylthiophenyl-S-propyl-phosphorodithioate] | 320 | –
